In patent publication US10034885B2, “Corneal thickness modulating agent” (KOWA COMPANY, LTD., priority 2014, dated 2018):
Like-named read-outs stand apart in the source and are kept apart here.

What was measured:
Rho kinase [1] = details: according to Non-Patent Document 7; read-out: 50% inhibitory concentration (IC50) for Rho kinase; cited from earlier work
Rho kinase [2] = details: disclosed in Patent Document 3; read-out: 50% inhibitory concentration (IC50) for Rho kinase; cited from earlier work
cornea = test: Change of thickness of cornea in human, long-term eyedrop administration test; format: in vivo
Description: In a long-term administration test of Compound B in a subject having ophthalmologic disease, the influence on the cornea was examined (27-34 examples). In other words, in an group administered an eyedrop consisting of 0.4% Compound B twice a day for 52 weeks, the corneal thickness was measured using pachymeter before starting administration (week 0), 2 weeks after starting administration, 4 weeks after starting administration, and every 4 weeks thereafter. Measurement was performed five times, and the mean value calculated from the five measurements was adopted. In the measuring day, the drop was instilled in the eye at 9:00 and measurement was performed at 11:00. Note that at week 28, week 52, and during the follow-up (7-28 days after the last administration day), measurement was performed twice at 9:00 (at week 28 and week 52, it was done before the instillation) and 11:00. The upper part in FIG. 1 represents the result from the right eye, and the lower part in FIG. 1 represents the result from the left eye. The vertical axis represents changing values (μm) from week 0, and the horizontal axis represents the week for administration. At week 28, week 52, and during the follow-up (f/u), the measurement at 9:00 is represented with (0) and the measurement at 11:00 is represented with (2).

[3] = test system: rabbit corneal endothelial cell; details: reported in Patent Document 1; cited from earlier work

SMILES: CC(N)[C@H]1CC[C@H](C(=O)Nc2ccncc2)CC1 (single isomer, unassigned; (+)) [Compound Y-27632, (+)-trans-4-(1-aminoethyl)-1-(4-pyridylaminocarbonyl)cyclohexane]
- IC50 (Rho kinase [1]): 110 nM

SMILES: CC1CNCCCN1S(=O)(=O)c1cccc2cncc(F)c12 (centres unmarked) [Compound A, 1-(4-fluoro-5-isoquinolinesulfonyl)-2-methyl-1,4-homopiperazine]
- IC50 (Rho kinase [2]): 200 nM

SMILES: C[C@H]1CNCCCN1S(=O)(=O)c1cccc2cncc(F)c12 [Compound B, (S)-(−)-1-(4-fluoro-5-isoquinolinesulfonyl)-2-methyl-1,4-homopiperazine]
- thickness of the cornea during the period for administration (cornea; human subjects with ophthalmologic disease, 0.4% eyedrop twice a day for 52 weeks, pachymeter, vs week 0): decreased
- thickness of the cornea during the continued administration (cornea; human, 0.4% eyedrop twice a day for 52 weeks): held at a nearly constant value
- thickness of the cornea before instillation (0) (cornea; human, week 28 and week 52, measured at 9:00 before instillation): had a tendency to return to the value before starting administration
- thickness of the cornea 2 hours after instillation (2) (cornea; human, week 28 and week 52, measured at 11:00): decreased

SMILES: C[C@@H](N)c1ccc(C(=O)Nc2ccnc3[nH]ccc23)cc1 [Compound Y-33983, (R)—(+)—N-(1H-pyrrolo[2,3-b]pyridin-4-yl)-4-(1-aminoethyl)benzamide]
- IC50 (Rho kinase [1]): 3.6 nM

SMILES: O=S(=O)(c1cccc2cnccc12)N1CCCNCC1 [fasudil, 1-(5-isoquinolinesulfonyl)-1,4-homopiperazine]
- adhesive property of a rabbit corneal endothelial cell [3]: enhanced
